Assay results from patent publication US12291532B2, “Substituted xanthines as modulators of TRPC5 activity” (Boehringer Ingelheim International GmbH, priority 2018, dated 2025).

Molecular target: T1, TRPC5 (Homo sapiens, UniProt Q9UL62)
T1 construct: expressed in transfected cells; host or cells: HEK293 TREx (inducible expression, induced 20-48 hours)
T1 sequence (Q9UL62 1-973): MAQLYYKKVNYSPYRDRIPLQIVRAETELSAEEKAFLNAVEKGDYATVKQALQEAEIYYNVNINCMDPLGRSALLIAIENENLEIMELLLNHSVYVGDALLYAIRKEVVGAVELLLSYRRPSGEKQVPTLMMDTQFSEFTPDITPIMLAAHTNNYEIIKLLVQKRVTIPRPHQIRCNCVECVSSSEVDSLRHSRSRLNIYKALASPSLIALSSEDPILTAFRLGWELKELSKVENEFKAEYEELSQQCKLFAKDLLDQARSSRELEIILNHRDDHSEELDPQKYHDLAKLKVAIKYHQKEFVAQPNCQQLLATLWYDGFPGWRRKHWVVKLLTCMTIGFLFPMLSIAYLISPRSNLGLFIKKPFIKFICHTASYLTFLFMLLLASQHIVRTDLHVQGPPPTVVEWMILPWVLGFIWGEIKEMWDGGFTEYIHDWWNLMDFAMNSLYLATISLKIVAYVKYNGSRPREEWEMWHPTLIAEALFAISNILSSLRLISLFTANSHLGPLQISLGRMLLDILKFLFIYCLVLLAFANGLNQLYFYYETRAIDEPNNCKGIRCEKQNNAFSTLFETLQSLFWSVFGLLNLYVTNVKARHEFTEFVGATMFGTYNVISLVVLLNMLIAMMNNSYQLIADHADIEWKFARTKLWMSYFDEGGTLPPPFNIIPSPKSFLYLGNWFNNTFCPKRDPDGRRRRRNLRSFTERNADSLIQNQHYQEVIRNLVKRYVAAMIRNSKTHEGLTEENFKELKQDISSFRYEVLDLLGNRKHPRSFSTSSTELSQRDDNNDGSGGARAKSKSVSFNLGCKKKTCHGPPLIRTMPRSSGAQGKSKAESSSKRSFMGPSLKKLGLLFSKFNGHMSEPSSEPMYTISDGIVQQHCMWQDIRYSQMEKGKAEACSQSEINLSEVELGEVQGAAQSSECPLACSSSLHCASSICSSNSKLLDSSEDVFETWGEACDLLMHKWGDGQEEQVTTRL
Experiment: Assay A: Determination of TRPC5-Inhibition (whole-cell patch clamp)
Type: cell-based
Conditions: compounds of the present invention, TRPC5-expressing HEK293 TREx cells, current activated by LaCl3
Text: Assay A: Determination of TRPC5-Inhibition
Patch clamp experiments permit the detection of currents through the TRPC5 channel in a cell line. In normal whole-cell patch clamp recordings, a glass electrode is brought into contact with a single cell and a high-resistance (gigaohm) seal is established with the cell membrane. The membrane is then ruptured to achieve the whole-cell configuration, permitting control of the voltage of the cell membrane and measurement of currents flowing across the membrane using the amplifier attached to the electrode and resulting in the replacement of cytoplasm with the pipette solution. A perfusion system permits control of the extracellular solution, including the addition of blockers and activators of the current. The current can be activated by including 1.4 μM free Ca2+ in the pipette (intracellular) solution, and 80 μM LaCl3 in the extracellular solution.
TRPC5 cells were induced 20-48 hours, removed from growth plates, and replated at low density (to attain good single-cell physical separation) on glass coverslips for measurement. In some cases, cells were grown in low density overnight on glass coverslips. Patch clamp recordings were made in the whole-cell mode with a holding potential of −40 mV. Every 5 seconds, a voltage ramp was applied from −120 to +100 mV, 400 ms in duration. Currents elicited were quantified at −80 mV and +80 mV. The internal solution consisted of 140 mM cesium aspartate, 10 mM HEDTA, 2 mM CaCl2, 2.27 mM MgCl2 and 10 mM HEPES, pH 7.2, with 1,400 nM calculated free Ca2+. The external solution consisted of 150 mM NaCl, 4.5 mM 15 KCl, 1 mM MgCl2, 2 mM CaCl2, 10 mM HEPES, 10 mM glucose, 1 mM EGTA, pH 7.4. Upon addition of LaCl3, TRPC5 current was induced only in TRPC5-expressing cells and not in parental HEK293 TREx cells. Removal of the LaCh stimulus causes most of the current to go away. Potential blockers were tested for ability to block both inward and outward currents in the continued presence of LaCl3.
IC50 of a compound of the invention was estimated by testing the compound 500 nM. […] Compounds blocking 50% or more at 500 nM are retested at multiple concentrations, and the % block is fitted by standard equations to determine […] accurately, using a […] concentration-response experiment.

With `CCn1c(=O)n(CCCO)c(=O)c2c1nc(-c1ncc(OC3CCC3C)nc1C)n2Cc1ccc(Cl)cc1` (stereo not drawn) [Example 1] the IC50 was 0.172 nM.
`Cc1nc(OC2CCC2)cnc1-c1nc2c(c(=O)n(CCCO)c(=O)n2C(C)C)n1Cc1ccccc1` [Example 2] was tested, and the IC50 was 0.207 nM.
Work on `CCn1c(=O)n(CCCO)c(=O)c2c1nc(-c1cnc(OC3CCC3)cn1)n2Cc1ccc(F)cc1` [Example 3] yielded an IC50 of 0.506 nM.
`CCn1c(=O)n(CCCO)c(=O)c2c1nc(-c1cnc(OC3CCC3)cn1)n2Cc1ccccc1` [Example 4] showed an IC50 of 1.11 nM.
Work on `CCn1c(=O)n(CCCO)c(=O)c2c1nc(-c1ncc(OC3CCC3C)nc1C)n2Cc1ccc(F)cc1` (stereo not drawn) [Example 5] yielded an IC50 of 0.29 nM.
Compound `CCn1c(=O)n(CCCO)c(=O)c2c1nc(-c1ncc(OC3CCC3)nc1C)n2Cc1ccccc1` [Example 6] has an IC50 of 1.22 nM.
